{"source": "patent US12052991B2", "about": "“Substituted pyridinyloxybenzenes and salts thereof and use thereof as herbicidal agents” (Bayer Aktiengesellschaft, priority 2018, dated 2024)", "assay_type_in_all_cases": "in vivo", "key": {"[1]": {"test_system": "harmful plants ABUTH, AMARE, ECHCG, LOLRI, MATIN, POAAN, SETVI, STEME, ALOMY, DIGSA, KCHSC and VERPE", "assay": "Herbicidal post-emergence action, summary of Tables B1-B12", "settings": "application rate of 1280 or 320 g of active ingredient per hectare; summary in words", "procedure,_shortened": "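Greenhouse weeds in sandy loam treated post-emergence at the one-leaf stage, 2–3 weeks after sowing, with WP or EC formulations sprayed with 0.5% additive at 600 L/ha water, 1280 or 320 g/ha. Damage rated visually after about 3 weeks versus untreated controls (0% = like control, 100% = dead).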"}, "Stellaria media (STEME) [2]": {"test_system": "Stellaria media (STEME)", "assay": "Herbicidal pre-emergence action, test C (Table C8)", "settings": "visual scoring after about 3 weeks, 100% = plants have died, 0% = like control plants", "procedure,_shortened": "(§1)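 Sandy loam, doubly sown pots; surface spray pre-emergence; 1280 or 320 g/ha; 0.5% additive; 600 L/ha. Greenhouse, ~3 weeks. Visual % vs untreated.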"}, "[3]": {"test_system": "Digitaria sanguinalis (DIGSA)", "assay": "Herbicidal pre-emergence action, test C (Table C10)", "settings": "dosage 1280 g/ha; visual scoring after about 3 weeks; 100% = plants have died, 0% = like control plants", "procedure,_shortened": "as §1"}, "[4]": {"test_system": "Abutilon theophrasti (ABUTH)", "assay": "Herbicidal pre-emergence action, test C (Table C5)", "settings": "visual scoring after about 3 weeks, 100% = plants have died, 0% = like control plants", "procedure,_shortened": "as §1"}, "Veronica persica (VERPE) [5]": {"test_system": "Veronica persica (VERPE)", "assay": "Herbicidal post-emergence action (Table B12)", "settings": "visual rating about 3 weeks after treatment, 100% = plants have died, 0% = like control plants", "procedure,_shortened": "(§2)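 Weeds grown from seed in sandy loam in the greenhouse were sprayed at the one-leaf stage, 2 to 3 weeks after sowing, with WP or EC formulations in water plus 0.5% additive at 600 L/ha. Rates corresponded to 1280 or 320 g/ha; damage was rated visually versus untreated controls after about 3 weeks.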"}, "[6]": {"test_system": "Alopecurus myosuroides (ALOMY)", "assay": "Herbicidal pre-emergence action, test C (Table C9)", "settings": "visual scoring after about 3 weeks, 100% = plants have died, 0% = like control plants", "excerpt": "(§3) Seeds of mono- and dicotyledonous weed plants were placed in plastic pots in sandy loam soil (doubly sown with one species each of mono- or dicotyledonous weed plants per pot) and covered with soil. The compounds of the invention, formulated in the form of wettable powders (WP) or as emulsion concentrates (EC), were then applied onto the surface of the covering soil as aqueous suspension or emulsion with addition of 0.5% additive at a water application rate of 600 liters per hectare (converted). After the treatment, the pots were placed in a greenhouse and kept under good growth conditions for the test plants. After about 3 weeks, the effect of the preparations was scored visually in comparison with untreated controls as percentages. For example, 100% activity=the plants have died, 0% activity=like control plants. Tables C1 to C12 below show the effects of selected compounds of the general formula (I) according to Table 1 on various harmful plants and an application rate corresponding to 1280 or 320 g/ha, which were obtained by the experimental procedure mentioned above."}, "Veronica persica (VERPE) [7]": {"test_system": "Veronica persica (VERPE)", "assay": "Herbicidal pre-emergence action, test C (Table C12)", "settings": "dosage 1280 g/ha, visual scoring vs untreated controls", "procedure,_shortened": "as §1"}, "Poa annua (POAAN) [8]": {"test_system": "Poa annua (POAAN)", "assay": "Herbicidal pre-emergence action, test C (Table C3)", "settings": "visual scoring after about 3 weeks, 100% = plants have died, 0% = like control plants", "procedure,_shortened": "as §1"}, "[9]": {"test_system": "Echinochloa crus-galli (ECHCG)", "assay": "Herbicidal pre-emergence action, test C (Table C1)", "settings": "dosage 1280 g/ha; visual scoring after about 3 weeks; 100% = plants have died, 0% = like control plants", "excerpt": "as §3"}, "[10]": {"test_system": "Abutilon theophrasti (ABUTH)", "assay": "Herbicidal post-emergence action (Table B5)", "settings": "rated visually after about 3 weeks, 100% = plants have died, 0% = like control plants", "procedure,_shortened": "as §2"}, "Bassia scoparia (KCHSC) [11]": {"test_system": "Bassia scoparia (KCHSC)", "assay": "Herbicidal post-emergence action (Table B11)", "settings": "visual rating about 3 weeks after treatment, 100% = plants have died, 0% = like control plants", "procedure,_shortened": "as §2"}, "[12]": {"test_system": "Digitaria sanguinalis (DIGSA)", "assay": "Herbicidal post-emergence action (Table B10)", "settings": "dosage 1280 g/ha; visual rating about 3 weeks after treatment; 100% = plants have died, 0% = like control plants", "procedure,_shortened": "as §2"}, "[13]": {"test_system": "Amaranthus retroflexus (AMARE)", "assay": "Herbicidal pre-emergence action, test C (Table C6)", "settings": "visual scoring after about 3 weeks, 100% = plants have died, 0% = like control plants", "procedure,_shortened": "as §1"}, "Setaria viridis (SETVI)": {"test_system": "Setaria viridis (SETVI)", "assay": "Herbicidal pre-emergence action, test C (Table C4)", "settings": "dosage 1280 g/ha; visual scoring after about 3 weeks; 100% = plants have died, 0% = like control plants", "procedure,_shortened": "as §1"}, "Poa annua (POAAN) [14]": {"test_system": "Poa annua (POAAN)", "assay": "Herbicidal post-emergence action (Table B3)", "settings": "rated visually after about 3 weeks, 100% = plants have died, 0% = like control plants", "procedure,_shortened": "as §2"}, "[15]": {"test_system": "Matricaria inodora (MATIN)", "assay": "Herbicidal pre-emergence action, test C (Table C7)", "settings": "dosage 1280 g/ha; visual scoring after about 3 weeks; 100% = plants have died, 0% = like control plants", "procedure,_shortened": "as §1"}, "[16]": {"test_system": "Amaranthus retroflexus (AMARE)", "assay": "Herbicidal post-emergence action (Table B6)", "settings": "visual rating about 3 weeks after treatment, 100% = plants have died, 0% = like control plants", "procedure,_shortened": "as §2"}, "[17]": {"test_system": "Echinochloa crus-galli (ECHCG)", "assay": "Herbicidal post-emergence action (Table B1)", "settings": "rated visually after about 3 weeks, 100% = plants have died, 0% = like control plants", "procedure,_shortened": "as §2"}, "[18]": {"test_system": "Alopecurus myosuroides (ALOMY)", "assay": "Herbicidal post-emergence action (Table B9)", "settings": "rated visually after about 3 weeks, 100% = plants have died, 0% = like control plants", "procedure,_shortened": "as §2"}, "Stellaria media (STEME) [19]": {"test_system": "Stellaria media (STEME)", "assay": "Herbicidal post-emergence action (Table B8)", "settings": "visual rating about 3 weeks after treatment, 100% = plants have died, 0% = like control plants", "procedure,_shortened": "as §2"}, "[20]": {"test_system": "harmful plants ABUTH, AMARE, ECHCG, LOLRI, MATIN, POAAN, SETVI, STEME, ALOMY, DIGSA, KCHSC and VERPE", "assay": "Herbicidal pre-emergence action (test C), summary of Tables C1-C12", "settings": "application rate of 1280 or 320 g of active ingredient per hectare; summary in words", "procedure,_shortened": "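Pre-emergence pot test in sandy loam: WP or EC formulations were sprayed onto the covering soil with 0.5% additive at 600 L/ha water, at 1280 or 320 g/ha. Plants were kept in the greenhouse, and activity was rated visually about 3 weeks later as % versus untreated controls (100% = dead).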"}, "Bassia scoparia (KCHSC) [21]": {"test_system": "Bassia scoparia (KCHSC)", "assay": "Herbicidal pre-emergence action, test C (Table C11)", "settings": "visual scoring vs untreated controls", "excerpt": "as §3"}}, "data": [{"molecule": "FC(F)c1cc(-c2ccccc2Oc2ccccn2)on1", "note": "[Example 1-38]", "values": [{"measurement": "herbicidal activity against the harmful plants of Tables B1-B12 in post-emergence treatment", "setting": "[1]", "result": "very good herbicidal activity"}, {"measurement": "Pre-emergence action against Stellaria media (STEME)", "setting": "Stellaria media (STEME) [2]; dosage 320 g/ha", "result": 100, "unit": "%"}, {"measurement": "Pre-emergence action against Stellaria media (STEME)", "setting": "Stellaria media (STEME) [2]; dosage 1280 g/ha", "result": 100, "unit": "%"}, {"measurement": "Pre-emergence action against Digitaria sanguinalis (DIGSA)", "setting": "[3]", "result": 100, "unit": "%"}, {"measurement": "Pre-emergence action against Abutilon theophrasti (ABUTH)", "setting": "[4]; dosage 320 g/ha", "result": 100, "unit": "%"}, {"measurement": "Pre-emergence action against Abutilon theophrasti (ABUTH)", "setting": "[4]; dosage 1280 g/ha", "result": 100, "unit": "%"}, {"measurement": "Post-emergence action against Veronica persica (VERPE)", "setting": "Veronica persica (VERPE) [5]; dosage 320 g/ha", "result": 100, "unit": "%"}, {"measurement": "Post-emergence action against Veronica persica (VERPE)", "setting": "Veronica persica (VERPE) [5]; dosage 1280 g/ha", "result": 100, "unit": "%"}, {"measurement": "Pre-emergence action against Alopecurus myosuroides (ALOMY)", "setting": "[6]; dosage 320 g/ha", "result": 90, "unit": "%"}, {"measurement": "Pre-emergence action against Alopecurus myosuroides (ALOMY)", "setting": "[6]; dosage 1280 g/ha", "result": 100, "unit": "%"}, {"measurement": "Pre-emergence action against Veronica persica (VERPE)", "setting": "Veronica persica (VERPE) [7]", "result": 100, "unit": "%"}, {"measurement": "Pre-emergence action against Poa annua (POAAN)", "setting": "Poa annua (POAAN) [8]; dosage 320 g/ha", "result": 100, "unit": "%"}, {"measurement": "Pre-emergence action against Poa annua (POAAN)", "setting": "Poa annua (POAAN) [8]; dosage 1280 g/ha", "result": 100, "unit": "%"}, {"measurement": "Pre-emergence action against Echinochloa crus-galli (ECHCG)", "setting": "[9]", "result": 100, "unit": "%"}, {"measurement": "Post-emergence action against Abutilon theophrasti (ABUTH)", "setting": "[10]; 320 g/ha", "result": 100, "unit": "%"}, {"measurement": "Post-emergence action against Abutilon theophrasti (ABUTH)", "setting": "[10]; 1280 g/ha", "result": 100, "unit": "%"}, {"measurement": "Post-emergence action against Bassia scoparia (KCHSC)", "setting": "Bassia scoparia (KCHSC) [11]; dosage 320 g/ha", "result": 90, "unit": "%"}, {"measurement": "Post-emergence action against Bassia scoparia (KCHSC)", "setting": "Bassia scoparia (KCHSC) [11]; dosage 1280 g/ha", "result": 100, "unit": "%"}, {"measurement": "Post-emergence action against Digitaria sanguinalis (DIGSA)", "setting": "[12]", "result": 100, "unit": "%"}, {"measurement": "Pre-emergence action against Amaranthus retroflexus (AMARE)", "setting": "[13]; dosage 320 g/ha", "result": 100, "unit": "%"}, {"measurement": "Pre-emergence action against Amaranthus retroflexus (AMARE)", "setting": "[13]; dosage 1280 g/ha", "result": 100, "unit": "%"}, {"measurement": "Pre-emergence action against Setaria viridis (SETVI)", "setting": "Setaria viridis (SETVI)", "result": 100, "unit": "%"}, {"measurement": "Post-emergence action against Poa annua (POAAN)", "setting": "Poa annua (POAAN) [14]; 320 g/ha", "result": 100, "unit": "%"}, {"measurement": "Post-emergence action against Poa annua (POAAN)", "setting": "Poa annua (POAAN) [14]; 1280 g/ha", "result": 100, "unit": "%"}, {"measurement": "Pre-emergence action against Matricaria inodora (MATIN)", "setting": "[15]", "result": 100, "unit": "%"}, {"measurement": "Post-emergence action against Amaranthus retroflexus (AMARE)", "setting": "[16]; dosage 320 g/ha", "result": 100, "unit": "%"}, {"measurement": "Post-emergence action against Amaranthus retroflexus (AMARE)", "setting": "[16]; dosage 1280 g/ha", "result": 100, "unit": "%"}, {"measurement": "Post-emergence action against Echinochloa crus-galli (ECHCG)", "setting": "[17]; 320 g/ha", "result": 90, "unit": "%"}, {"measurement": "Post-emergence action against Echinochloa crus-galli (ECHCG)", "setting": "[17]; 1280 g/ha", "result": 100, "unit": "%"}, {"measurement": "Post-emergence action against Alopecurus myosuroides (ALOMY)", "setting": "[18]; 320 g/ha", "result": 100, "unit": "%"}, {"measurement": "Post-emergence action against Alopecurus myosuroides (ALOMY)", "setting": "[18]; 1280 g/ha", "result": 100, "unit": "%"}, {"measurement": "Post-emergence action against Stellaria media (STEME)", "setting": "Stellaria media (STEME) [19]; dosage 320 g/ha", "result": 100, "unit": "%"}, {"measurement": "Post-emergence action against Stellaria media (STEME)", "setting": "Stellaria media (STEME) [19]; dosage 1280 g/ha", "result": 100, "unit": "%"}, {"measurement": "herbicidal activity against the harmful plants of Tables C1-C12 in pre-emergence treatment", "setting": "[20]", "result": "very good herbicidal activity"}, {"measurement": "Pre-emergence action against Bassia scoparia (KCHSC)", "setting": "Bassia scoparia (KCHSC) [21]; dosage 320 g/ha", "result": 100, "unit": "%"}, {"measurement": "Pre-emergence action against Bassia scoparia (KCHSC)", "setting": "Bassia scoparia (KCHSC) [21]; dosage 1280 g/ha", "result": 100, "unit": "%"}]}]}
